These are literature values, as cited in US9889109B2, “Pharmaceutical composition comprising benzyl alcohol for the treatment of migraines” (St. Renatus, LLC, priority 2012, dated 2018).

With `CCCCNc1ccc(C(=O)OCCN(C)C)cc1` [tetracaine, 2-(dimethylamino)ethyl 4-(butylamino)benzoate], the pKa entry is given as “approximately 8.4”. Moreover, where the note is “pH 7.4”, the unionized molecules is 1-2%.
